Counter-ions that a name gives are not always drawn.
Legend:
DNMT1 = DNMT1 (Homo sapiens, UniProt P26358); test: Selective depletion of DNMT1 by Western blot in treated HCT116 cells; format: cell-based; set-up: Protein extracts (equivalent to 100 μg) were isolated from HCT116 cells; endogenous in cells; host or cells: HCT116; conditions: for % DNMT1 protein level remaining at 5 µM: HCT-116, 5 μM; for % DNMT1 protein level remaining at 10 µM: HCT-116, 10 μM
Description: Biol. 2005, 11, 4727-41.]. For DNMT1, commercially available antibodies from Santa Cruz or New England Biolabs were used.

Chain of DNMT1 (P26358 whole entry): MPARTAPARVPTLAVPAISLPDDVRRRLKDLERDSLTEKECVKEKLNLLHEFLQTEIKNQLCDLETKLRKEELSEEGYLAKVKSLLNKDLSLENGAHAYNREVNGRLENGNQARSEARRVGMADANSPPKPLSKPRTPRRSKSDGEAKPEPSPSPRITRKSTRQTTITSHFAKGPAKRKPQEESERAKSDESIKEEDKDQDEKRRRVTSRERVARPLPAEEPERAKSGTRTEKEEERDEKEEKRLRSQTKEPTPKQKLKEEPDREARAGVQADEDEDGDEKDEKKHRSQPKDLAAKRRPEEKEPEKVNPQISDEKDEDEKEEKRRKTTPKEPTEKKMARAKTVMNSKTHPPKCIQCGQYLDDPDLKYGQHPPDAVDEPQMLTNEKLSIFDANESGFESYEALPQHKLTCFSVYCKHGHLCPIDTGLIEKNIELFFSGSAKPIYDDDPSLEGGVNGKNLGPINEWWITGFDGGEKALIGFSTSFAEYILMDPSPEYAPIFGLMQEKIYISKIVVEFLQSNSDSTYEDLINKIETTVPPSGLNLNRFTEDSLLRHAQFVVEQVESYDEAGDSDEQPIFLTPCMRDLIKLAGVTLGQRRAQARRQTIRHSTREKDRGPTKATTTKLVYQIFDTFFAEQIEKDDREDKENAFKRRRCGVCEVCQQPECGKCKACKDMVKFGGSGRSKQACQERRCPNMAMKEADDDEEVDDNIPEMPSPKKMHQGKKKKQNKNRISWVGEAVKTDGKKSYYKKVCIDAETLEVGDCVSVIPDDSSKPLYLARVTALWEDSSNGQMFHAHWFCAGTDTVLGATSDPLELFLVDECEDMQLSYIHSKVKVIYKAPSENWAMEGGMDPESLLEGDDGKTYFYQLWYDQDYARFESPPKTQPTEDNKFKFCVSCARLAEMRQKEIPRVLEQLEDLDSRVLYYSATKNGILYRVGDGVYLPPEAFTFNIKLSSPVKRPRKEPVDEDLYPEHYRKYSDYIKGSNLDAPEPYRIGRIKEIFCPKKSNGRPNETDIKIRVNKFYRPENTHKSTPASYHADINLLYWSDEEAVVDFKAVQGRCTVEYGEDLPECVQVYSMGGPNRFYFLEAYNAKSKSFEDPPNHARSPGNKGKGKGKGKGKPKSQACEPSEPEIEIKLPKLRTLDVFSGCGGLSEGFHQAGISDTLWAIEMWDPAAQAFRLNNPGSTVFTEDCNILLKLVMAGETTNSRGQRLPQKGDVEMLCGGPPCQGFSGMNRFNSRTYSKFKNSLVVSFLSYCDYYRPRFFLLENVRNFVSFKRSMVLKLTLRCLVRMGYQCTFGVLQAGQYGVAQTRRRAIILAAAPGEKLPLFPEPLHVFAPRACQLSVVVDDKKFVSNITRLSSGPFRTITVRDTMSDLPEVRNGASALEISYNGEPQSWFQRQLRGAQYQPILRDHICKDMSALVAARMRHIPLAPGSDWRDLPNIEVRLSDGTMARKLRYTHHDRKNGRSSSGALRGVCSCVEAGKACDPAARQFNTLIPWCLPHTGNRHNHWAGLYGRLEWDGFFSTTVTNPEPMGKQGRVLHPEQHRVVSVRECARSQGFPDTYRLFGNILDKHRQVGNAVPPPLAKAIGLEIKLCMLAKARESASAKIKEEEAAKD

Structure (SMILES)	% DNMT1 protein level remaining at 5 µM (DNMT1)	% DNMT1 protein level remaining at 10 µM (DNMT1)	melting point	further results
C[n+]1ccc(Nc2cccc(NC(=O)c3ccc(Nc4ccnc5ccccc45)cc3)c2)cc1 (as salt: chloride) [Cpd. A, 1-methyl-4-(3-{[4-(4-quinolinylamino)benzoyl]amino}anilino)pyridinium chloride]	–	–	253 to 257 °C	–
Cc1cc(Nc2cccc(C(=O)Nc3ccc(Nc4ccnc5ccc(N(C)C)cc45)cc3)c2)nc(N)n1 (as salt: chloride) [Cpd. EE, 4-[4-({3-[(2-amino-6-methyl-4-pyrimidinyl)amino]benzoyl}amino)anilino]-6-(dimethylamino)quinolinium chloride]	–	–	> 300 °C	–
C[n+]1ccc(Nc2cccc(NC(=O)c3ccc(Nc4ccnc5ccc([N+](=O)[O-])cc45)cc3)c2)cc1 (as salt: chloride) [Cpd. F, 1-methyl-4-(3-{[4-(6-nitro-4-quinolinylamino)benzoyl]amino}anilino)pyridinium chloride]	–	–	273 to 277 °C	–
C[n+]1ccc(Nc2ccc(C(=O)Nc3ccc(Nc4ccnc5ccc(N)cc45)cc3)cc2)cc1 (as salt: chloride) [Cpd. N, 4-[4-({4-[(6-amino-4-quinolinyl)amino]anilino}carbonyl)anilino]-1-methylpyridinium chloride]	–	–	> 300 °C	–
C/C(=N\N=C(N)N)c1cccc(C(=O)Nc2ccc(Nc3ccnc4ccc(N(C)C)cc34)cc2)c1 (as salt: chloride) [Cpd. QQ, 4-[4-({3-[(1E)-N-(diaminomethylene)ethanehydrazonoyl]-benzoyl}amino)anilino]-6-(dimethylamino)quinolinium chloride]	–	–	> 280 °C	–
C[n+]1ccc(Nc2cccc(NC(=O)c3ccc(Nc4ccnc5cc([N+](=O)[O-])ccc45)cc3)c2)cc1 (as salt: chloride) [Cpd. R, 1-methyl-4-[3-({4-[(7-nitro-4-quinolinyl)amino]benzoyl}amino)anilino]pyridinium chloride]	–	–	303 °C (dec.)	–
C[n+]1ccc(Nc2ccc(NC(=O)c3ccc(Nc4ccnc5ccccc45)cc3)cc2)cc1 (as salt: hydrochloride) [Cpd. B, 1-methyl-4-(4-(4-(quinolin-4-ylamino)benzamido)phenylamino)pyridinium chloride hydrochloride]	–	–	> 300 °C	–
Cc1cc(Nc2ccc(NC(=O)c3ccc(Nc4ccnc5cc(N(C)C)ccc45)cc3)cc2)nc(N)n1 (as salt: hydrochloride) [Cpd. BB, N-[4-(2-amino-6-methylpyrimidin-4-ylamino)phenyl]-4-(7-(dimethylamino)quinolin-4-ylamino)benzamide hydrochloride]	–	–	272 to 275 °C	–
Cc1cc(Nc2cccc(C(=O)Nc3ccc(Nc4ccnc5ccccc45)cc3)c2)nc(N)n1 (as salt: hydrochloride) [Cpd. FF1, 3-[(2-amino-6-methyl-4-pyrimidinyl)amino]-N-[4-(4-quinolinylamino)phenyl]benzamide dihydrochloride]	–	–	> 300 °C	–
Cc1cc(Nc2cccc(C(=O)Nc3ccc(Nc4ccnc5ccc(N(C)C)cc45)cc3)c2)nc(N)n1 [Cpd. EE, 4-[4-({3-[(2-amino-6-methyl-4-pyrimidinyl)amino]benzoyl}amino)anilino]-6-(dimethylamino)quinolinium chloride]	30%	10%	–	–
Cl.Cl.O=C(Nc1ccc(Nc2ccncc2)cc1)c1ccc(Nc2ccnc3ccccc23)cc1 [Cpd. EEE2, n-[4-(pyridin-4-ylamino)phenyl]-4-(quinolin-4-ylamino)benzamide dihydrochloride]	–	–	–	% DNMT1 Level (DNMT1; 5 μM): 3%; % DNMT1 Level (DNMT1; 10 μM): 0%
Cc1cc(Nc2cccc(C(=O)Nc3ccc(Nc4ccnc5ccccc45)cc3)c2)nc(N)n1 [Cpd. FF1, 3-[(2-amino-6-methyl-4-pyrimidinyl)amino]-N-[4-(4-quinolinylamino)phenyl]benzamide dihydrochloride]	15%	5%	–	–
Nc1cc(Nc2cccc(C(=O)Nc3ccc(Nc4ccnc5ccccc45)cc3)c2)nc(N)n1 [Cpd. FF2, 3-[(2,6-Diamino-4-pyrimidinyl)amino]-N-[4-(4-quinolinylamino)-phenyl]benzamide dihydrochloride]	85%	83%	–	–
C[n+]1ccc(Nc2ccc(NC(=O)c3ccc(Nc4ccnc5ccc([N+](=O)[O-])cc45)cc3)cc2)cc1 [Cpd. G, 1-methyl-4-(4-(4-(6-nitroquinolin-4-ylamino)benzamido)phenylamino)pyridinium chloride hydrochloride]	95%	95%	–	% DNMT1 protein level remaining at 100 µM (DNMT1; HCT-116, 100 μM): 100%
Cc1cc(Nc2ccc(C(=O)Nc3ccc(Nc4ccnc5ccc(N(C)C)cc45)cc3)cc2)nc(N)n1 [Cpd. HH, 4-[(2-amino-6-methyl-4-pyrimidinyl)amino]-N-(4-{[6-(dimethylamino)-4-quinolinyl]amino}phenyl)benzamide dihydrochloride]	–	90%	–	–
Cc1cc(Nc2ccc(NC(=O)c3ccc(Nc4ccnc5c(F)c(F)c(F)cc45)cc3)cc2)nc(N)n1 [Cpd. KK, n-[4-(2-amino-6-methylpyrimidin-4-ylamino)phenyl]-4-(6,7,8-trifluoroquinolin-4-ylamino)benzamide dihydrochloride]	82%	20%	–	–
C/C(=N\N=C(N)N)c1ccc(NC(=O)c2ccc(Nc3ccnc4ccc(N(C)C)cc34)cc2)cc1 [Cpd. NN, (E)-N-(4-(1-((Diaminomethylene)hydrazono)ethyl)phenyl)-4-(6-(dimethylamino)quinolin-4-ylamino)benzamide Dihydrochloride]	70%	70%	–	–
C/C(=N\N=C(N)N)c1ccc(C(=O)Nc2ccc(Nc3ccnc4ccc(N(C)C)cc34)cc2)cc1 [Cpd. PP, 4-[(1E)-N-(diaminomethylene)ethanehydrazonoyl]-N-(4-{[6-(dimethylamino)-4-quinolinyl]amino}phenyl)benzamide dihydrochloride]	60%	70%	–	–
C/C(=N\N=C(N)N)c1cccc(C(=O)Nc2ccc(Nc3ccnc4ccc(N(C)C)cc34)cc2)c1 [Cpd. QQ, 4-[4-({3-[(1E)-N-(diaminomethylene)ethanehydrazonoyl]-benzoyl}amino)anilino]-6-(dimethylamino)quinolinium chloride]	60%	50%	–	–

Further lines, with some results ahead:

% DNMT1 protein level remaining at 5 µM (DNMT1)	% DNMT1 protein level remaining at 10 µM (DNMT1)	Structure (SMILES)	melting point	further results
25%	20%	Cc1cc(Nc2ccc(C(=O)Nc3ccc(Nc4ccnc5ccccc45)cc3)cc2)nc(N)n1 [Cpd. GG1, 4-[(2-amino-6-methyl-4-pyrimidinyl)amino]-N-[4-(4-quinolinylamino)phenyl]benzamide dihydrochloride]	–	–
85%	52%	Cc1cc(Nc2ccc(C(=O)Nc3ccc(Nc4ccnc5cc(N)ccc45)cc3)cc2)nc(N)n1 [Cpd. GG2, 4-[(2-Amino-6-methyl-4-pyrimidinyl)amino]-N-{4-[(7-amino-4-quinolinyl)amino]phenyl}benzamide dihydrochloride]	–	–
110%	10%	Cc1cc(Nc2ccc(C(=O)Nc3ccc(Nc4ccnc5ccc(N)cc45)cc3)cc2)nc(N)n1 [Cpd. GG3, 4-[(2-amino-6-methyl-4-pyrimidinyl)amino]-N-{4-[(6-amino-4-quinolinyl)amino]phenyl}benzamide dihydrochloride]	–	–
–	90%	Cc1cc(Nc2ccc(C(=O)Nc3ccc(Nc4ccnc5ccc([N+](=O)[O-])cc45)cc3)cc2)nc(N)n1 [Cpd. GG4, 4-[(2-Amino-6-methyl-4-pyrimidinyl)amino]-N-{4-[(6-nitro-4-quinolinyl)amino]phenyl}benzamide dihydrochloride]	–	–
–	90%	Cc1cc(Nc2ccc(C(=O)Nc3ccc(Nc4ccnc5cc([N+](=O)[O-])ccc45)cc3)cc2)nc(N)n1 [Cpd. GG5, 4-[(2-Amino-6-methyl-4-pyrimidinyl)amino]-N-{4-[(7-nitro-4-quinolinyl)amino]phenyl}benzamide dihydrochloride]	–	–
75%	70%	C/C(=N\N=C(N)N)c1cccc(NC(=O)c2ccc(Nc3ccnc4ccc(N(C)C)cc34)cc2)c1 [Cpd. JJ1, (E)-N-[3-(1-{(diaminomethylene)hydrazono}ethyl)phenyl]-4-[6-(dimethylamino)quinolin-4-ylamino]benzamide dihydrochloride]	–	–
147%	130%	C/C(=N\N=C(N)N)c1cccc(NC(=O)c2ccc(Nc3ccnc4ccccc34)cc2)c1 [Cpd. JJ2, (E)-N-[3-(1-{(Diaminomethylene)hydrazono}ethyl)phenyl]-4-(quinolin-4-ylamino)benzamide dihydrochloride]	–	–
–	100%	Nc1cc(Nc2cccc(C(=O)Nc3ccc(Nc4ccnc5ccc([N+](=O)[O-])cc45)cc3)c2)nc(N)n1 [Cpd. RR1, 3-[(2,6-diamino-4-pyrimidinyl)amino]-N-{4-[(6-nitro-4-quinolinyl)amino]phenyl}benzamide dihydrochloride]	–	–
–	100%	Cc1cc(Nc2cccc(C(=O)Nc3ccc(Nc4ccnc5ccc([N+](=O)[O-])cc45)cc3)c2)nc(N)n1 [RR2, 3-[(2-amino-6-methyl-4-pyrimidinyl)amino]-N-{4-[(6-nitro-4-quinolinyl)amino]phenyl}benzamide dihydrochloride]	–	–
–	100%	Cc1cc(Nc2cccc(C(=O)Nc3ccc(Nc4ccnc5ccc(N)cc45)cc3)c2)nc(N)n1 [RR3, 3-[(2-Amino-6-methyl-4-pyrimidinyl)amino]-N-{4-[(6-amino-4-quinolinyl)amino]phenyl}benzamide dihydrochloride]	–	–
